The record followed here is patent publication US11440907B1 (Merck Patent GmbH, priority 2018, dated 2022).

The test system of assay [1] is XBP1(u)-luciferase splicing reporter in HepG2 hepatoma cells. Kind of assay: HepG2 XBP1 reporter assay (XBP1(u)-Luc). In kind it is cell-based. The following applies: Homo sapiens, 6 h, six hours after addition of compound.
Assay [2] deals with NCI-H929 (Multiple myeloma cells). Kind of assay: Cell viability (ATPLite) in NCI-H929. Format: cell-based. The following applies: Homo sapiens, 96 hours. The protocol: Cells were removed from liquid nitrogen storage, thawed and expanded in appropriate growth media. Once expanded, cells were seeded in 384-well tissue culture treated plates at 500 cells per well. After 24 hours, cells were treated for either 0 hours or treated for 96 hours with a testing compound (at the concentrations of 100 nM and 2 uM). At the end of either 0 hours or 96 hours, cell status was analyzed using ATPLite (Perkin Elmer) to assess the biological response of cells to the testing compound.
In general terms: Cellular ATP, detected with luciferase, serves as a proxy for viable cell number.

By IC50 is commonly meant the point on the concentration scale where inhibition reaches its midpoint. In the case of `Cc1cc(N2CCCOC[C@H]2c2ccc(C3CCNCC3)cc2Cl)nc(N)n1` [D-68], the IC50 in assay [1] was less than 0.6 µM; in assay [2] it was less than 1 µM.

In the case of `CCc1cc(N2CCCOCC2c2cc(O)c(OC)cc2Cl)nc(N)n1` [D-71], the IC50 in assay [1] was less than 0.6 µM; in assay [2], less than 1 µM.

Consider `COc1ccc([C@H]2COCCCN2c2cc(C)nc(N)n2)c(Cl)c1` [D-80], for which the concentration for half-maximal inhibition (IC50) in assay [1] is less than 0.6 µM; in assay [2], less than 1 µM.

As to `Cc1cc(N2CCCOC[C@@H]2c2ncc(CS(C)(=O)=O)cc2Cl)nc(N)n1` [D-81], the IC50 in assay [1] was less than 0.6 µM; in assay [2] it was less than 1 µM.

As for `Cc1cc(N2CCCOC[C@@H]2c2cc(O)c(CS(C)(=O)=O)cc2Cl)nc(N)n1` [D-86], the IC50 is less than 0.6 µM in assay [1] and less than 1 µM in assay [2].

Consider `CCc1cc(N2CCCOC[C@@H]2c2cc(O)c(OC)cc2Cl)nc(N)n1` [D-104], for which the values for the IC50 in assay [1] and in assay [2] were less than 0.6 µM and less than 1 µM, respectively.

On to `CCc1cc(N2CCCOCC2c2cc(O)c(NC(C)=O)cc2Cl)nc(N)n1` [D-110], for which the 50% inhibitory concentration (IC50) in assay [1] was less than 0.6 µM; in assay [2], less than 1 µM.

Consider `Cc1cc(N2CCCOCC2c2ccc(O)cc2C(F)(F)F)nc(N)n1` [D-111], for which the IC50 is less than 0.6 µM in assay [1] and less than 1 µM in assay [2].

On to `CNC(=O)[C@]1(C)CNc2cc(Cl)c([C@H]3COCCCN3c3cc(C)nc(N)n3)cc2O1` [D-116], for which the IC50 was less than 0.6 µM in assay [1] and less than 1 µM in assay [2].

On to `Cc1cc(N2CCCOC[C@@H]2c2cc(O)c(C(=O)N(C)C)cc2Cl)nc(N)n1` [D-117], for which the IC50 is less than 0.6 µM in assay [1] and less than 1 µM in assay [2].

On to `Cc1cc(N2CCCOC[C@@H]2c2cc(O)c(OC(F)(F)F)cc2Cl)nc(N)n1` [D-119], for which the IC50 in assay [1] was less than 0.6 µM; in assay [2] it was less than 1 µM.

As to `Cc1cc(N2CCCOC[C@H]2c2ccc(S(=O)(=O)C3CCC3)cc2Cl)nc(N)n1` [D-141], the 50% inhibitory concentration (IC50) was not below 5 µM in assay [1] and 1 to 10 µM in assay [2].

Turning to `Cc1cc(N2CCCOC[C@H]2c2ccc(NC(=O)C(F)F)cc2Cl)nc(N)n1` [D-142], the results for the IC50 in assay [1] and in assay [2] were not below 5 µM and less than 1 µM, respectively.

For `Cc1cc(N2CCCOC[C@H]2c2cc3c(cc2Cl)NCCC3)nc(N)n1` [D-143], the values for the IC50 in assay [1] and in assay [2] were not below 5 µM and not below 25 µM, respectively.

Take `Cc1cc(N2CCCOC[C@H]2c2cc3c(cc2Cl)N(C)CC3)nc(N)n1` [D-144]: the IC50 in assay [1] is not below 5 µM; in assay [2] it was not below 25 µM.

Take `Cc1cc(N2CCCOC[C@H]2c2cc(N)c(C(F)(F)F)cc2Cl)nc(N)n1` [D-145]: the IC50 in assay [1] is not below 5 µM; in assay [2] it was not below 25 µM.

In the case of `Cc1cc(N2CCCOCC2c2ccc(CS(C)(=O)=O)[nH]c2=O)nc(N)n1` [D-146], the half-maximal inhibitory concentration (IC50) in assay [1] is not below 5 µM; in assay [2] it was not below 25 µM.

Regarding `Cc1cc(N2CCCOC[C@H]2c2ccc(CS(C)(=O)=O)cc2OC(F)F)nc(N)n1` [D-152], the figures for the IC50 in assay [1] and in assay [2] were not below 5 µM and not below 25 µM, respectively.

As to `CCOc1cc([C@@H]2COCCCN2c2cc(C)nc(N)n2)c(Cl)cc1OC` [D-153], the IC50 in assay [1] was not below 5 µM; in assay [2], not below 25 µM.

`Cc1cc(N2CCCOC[C@H]2c2cc3c(cc2Cl)OCC(C)(C)CO3)nc(N)n1` [D-154]: the values for the half-inhibitory concentration (IC50) in assay [1] and in assay [2] were not below 5 µM and not below 25 µM, respectively.

As to `CCOC(=O)[C@]1(C)CNc2cc(Cl)c([C@@H]3COCCCN3c3cc(C)nc(N)n3)cc2O1` [D-155], the IC50 in assay [1] was not below 5 µM; in assay [2], not below 25 µM.

In the case of `CCOC(=O)[C@@]1(C)CNc2cc(Cl)c([C@@H]3COCCCN3c3cc(C)nc(N)n3)cc2O1` [D-157], the IC50 was not below 5 µM in assay [1] and not below 25 µM in assay [2].

As for `Cc1cc(N2CCCOC[C@H]2c2ccc(OS(C)(=O)=O)cc2OC(F)(F)F)nc(N)n1` [D-158], the IC50 in assay [1] is not below 5 µM; in assay [2], not below 25 µM.

With `COc1cc([C@@H]2COCCCN2c2cc(C)nc(N)n2)c(Cl)cc1OCC#N` [D-159], the values for the IC50 in assay [1] and in assay [2] were not below 5 µM and not below 25 µM, respectively.
